# Data as given in the kinase profiling compilation of Christmann-Franck et al. (2016).
# Tests used:
# Assay in all cases: radiometric filter-binding kinase assay
# BTK (human) = BTK (human) (UniProt Q06187)
# SRC (human) = SRC (human) (UniProt P12931)
# FLT1 (human) = FLT1 (human) (UniProt P17948)
# JAK2 JH1 JH2 (human) = JAK2 JH1 JH2 (human) (UniProt O60674)
# MAP2K2 (human) = MAP2K2 (human) (UniProt P36507)
# MAPK12 (human) = MAPK12 (human) (UniProt P53778)
# RPS6KA5 KD1 KD2 (human) = RPS6KA5 KD1 KD2 (human) (UniProt O75582)
# RPS6KA5 KD1 KD2 (human), sequence (O75582 whole entry, looked up): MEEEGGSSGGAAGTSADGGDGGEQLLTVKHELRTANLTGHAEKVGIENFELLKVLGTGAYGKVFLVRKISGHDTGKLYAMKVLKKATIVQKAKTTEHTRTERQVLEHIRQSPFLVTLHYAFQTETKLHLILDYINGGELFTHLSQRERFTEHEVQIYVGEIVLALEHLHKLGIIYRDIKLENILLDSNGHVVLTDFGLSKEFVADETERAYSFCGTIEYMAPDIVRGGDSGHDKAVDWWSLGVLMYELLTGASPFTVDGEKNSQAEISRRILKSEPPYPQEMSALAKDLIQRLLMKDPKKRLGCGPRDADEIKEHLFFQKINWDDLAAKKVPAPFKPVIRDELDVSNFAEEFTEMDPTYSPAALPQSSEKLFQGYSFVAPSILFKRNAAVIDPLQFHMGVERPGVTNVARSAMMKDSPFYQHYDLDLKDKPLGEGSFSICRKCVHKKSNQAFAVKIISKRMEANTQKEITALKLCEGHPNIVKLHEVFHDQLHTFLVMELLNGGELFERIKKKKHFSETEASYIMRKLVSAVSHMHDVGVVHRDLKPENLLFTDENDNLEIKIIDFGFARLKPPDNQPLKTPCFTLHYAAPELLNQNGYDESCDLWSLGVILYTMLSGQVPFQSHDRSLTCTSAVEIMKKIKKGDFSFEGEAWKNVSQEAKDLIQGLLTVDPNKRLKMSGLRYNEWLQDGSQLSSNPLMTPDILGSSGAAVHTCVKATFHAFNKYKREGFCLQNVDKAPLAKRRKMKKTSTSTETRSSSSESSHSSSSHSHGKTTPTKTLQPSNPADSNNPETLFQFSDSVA
# MAPK1 (human) = MAPK1 (human) (UniProt P28482)
# MAPK1 (human), sequence (P28482 whole entry, looked up): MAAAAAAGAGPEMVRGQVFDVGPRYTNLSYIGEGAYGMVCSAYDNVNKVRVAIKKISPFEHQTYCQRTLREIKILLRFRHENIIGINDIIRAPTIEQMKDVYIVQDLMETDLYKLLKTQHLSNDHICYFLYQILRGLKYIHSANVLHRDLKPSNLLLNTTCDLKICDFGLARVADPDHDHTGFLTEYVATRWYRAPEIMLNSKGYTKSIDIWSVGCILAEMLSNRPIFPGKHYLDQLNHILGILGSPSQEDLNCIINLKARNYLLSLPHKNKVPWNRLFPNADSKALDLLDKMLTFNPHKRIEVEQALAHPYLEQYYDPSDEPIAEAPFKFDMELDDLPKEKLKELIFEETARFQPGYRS
# EPHB3 (human) = EPHB3 (human) (UniProt P54753)
# AURKA (human) = AURKA (human) (UniProt O14965)
# LCK (mouse) = conditions: accession and sequence are those of the human protein
# HIPK1 (human) = HIPK1 (human) (UniProt Q86Z02)
# MAPK3 (human) = MAPK3 (human) (UniProt P27361)
# TLK1 (human) = TLK1 (human) (UniProt Q9UKI8)
# TLK1 (human), sequence (Q9UKI8 whole entry, looked up): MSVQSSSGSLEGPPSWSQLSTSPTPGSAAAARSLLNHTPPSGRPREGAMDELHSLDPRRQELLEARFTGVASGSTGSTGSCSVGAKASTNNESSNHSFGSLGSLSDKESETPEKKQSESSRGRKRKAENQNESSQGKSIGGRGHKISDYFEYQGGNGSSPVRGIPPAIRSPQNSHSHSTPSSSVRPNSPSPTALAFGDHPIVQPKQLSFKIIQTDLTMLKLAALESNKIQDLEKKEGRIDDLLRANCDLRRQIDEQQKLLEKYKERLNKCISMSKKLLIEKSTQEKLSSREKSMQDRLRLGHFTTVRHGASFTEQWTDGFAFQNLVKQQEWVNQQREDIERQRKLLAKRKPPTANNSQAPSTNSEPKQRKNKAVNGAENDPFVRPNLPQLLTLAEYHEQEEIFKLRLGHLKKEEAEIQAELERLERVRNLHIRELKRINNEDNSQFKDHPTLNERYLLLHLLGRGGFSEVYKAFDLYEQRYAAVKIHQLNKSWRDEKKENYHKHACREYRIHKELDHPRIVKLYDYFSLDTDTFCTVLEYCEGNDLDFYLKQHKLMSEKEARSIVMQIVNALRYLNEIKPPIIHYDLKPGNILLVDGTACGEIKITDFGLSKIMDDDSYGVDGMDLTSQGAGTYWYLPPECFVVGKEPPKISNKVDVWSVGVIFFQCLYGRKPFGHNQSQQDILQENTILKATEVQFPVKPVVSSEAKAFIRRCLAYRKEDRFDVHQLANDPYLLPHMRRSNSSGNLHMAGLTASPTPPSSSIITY
# GCK (human) = GCK (human) (UniProt Q12851)
# ABL1 (human) = ABL1 (human) (UniProt P00519)
# MAPK9 (human) = MAPK9 (human) (UniProt P45984)
# RPS6KA1 KD1 KD2 (human) = RPS6KA1 KD1 KD2 (human) (UniProt Q15418)
# MAPKAPK5 (human) = MAPKAPK5 (human) (UniProt Q8IW41)
# PLK1 (human) = PLK1 (human) (UniProt P53350)
# INSRR (human) = INSRR (human) (UniProt P14616)
# ZAP70 (human) = ZAP70 (human) (UniProt P43403)
# ZAP70 (human), sequence (P43403 whole entry, looked up): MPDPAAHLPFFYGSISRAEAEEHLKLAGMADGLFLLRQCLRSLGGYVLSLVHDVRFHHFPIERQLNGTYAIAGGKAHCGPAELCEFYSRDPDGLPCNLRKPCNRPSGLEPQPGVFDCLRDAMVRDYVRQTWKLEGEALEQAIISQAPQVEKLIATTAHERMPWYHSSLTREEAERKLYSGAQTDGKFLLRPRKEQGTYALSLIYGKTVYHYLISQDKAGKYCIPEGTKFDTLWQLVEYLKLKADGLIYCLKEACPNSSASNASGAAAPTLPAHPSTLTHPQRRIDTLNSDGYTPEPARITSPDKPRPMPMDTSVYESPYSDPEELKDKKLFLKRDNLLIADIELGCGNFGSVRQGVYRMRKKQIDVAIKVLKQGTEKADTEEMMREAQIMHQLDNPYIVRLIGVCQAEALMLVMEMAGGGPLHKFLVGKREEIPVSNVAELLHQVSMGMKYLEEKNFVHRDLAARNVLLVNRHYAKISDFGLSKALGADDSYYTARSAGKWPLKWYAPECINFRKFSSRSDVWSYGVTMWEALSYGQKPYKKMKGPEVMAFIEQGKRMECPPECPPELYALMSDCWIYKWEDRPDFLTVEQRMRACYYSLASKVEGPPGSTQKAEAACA
# EPHB2 (human) = EPHB2 (human) (UniProt P29323)
# EPHB2 (human), sequence (P29323 whole entry, looked up): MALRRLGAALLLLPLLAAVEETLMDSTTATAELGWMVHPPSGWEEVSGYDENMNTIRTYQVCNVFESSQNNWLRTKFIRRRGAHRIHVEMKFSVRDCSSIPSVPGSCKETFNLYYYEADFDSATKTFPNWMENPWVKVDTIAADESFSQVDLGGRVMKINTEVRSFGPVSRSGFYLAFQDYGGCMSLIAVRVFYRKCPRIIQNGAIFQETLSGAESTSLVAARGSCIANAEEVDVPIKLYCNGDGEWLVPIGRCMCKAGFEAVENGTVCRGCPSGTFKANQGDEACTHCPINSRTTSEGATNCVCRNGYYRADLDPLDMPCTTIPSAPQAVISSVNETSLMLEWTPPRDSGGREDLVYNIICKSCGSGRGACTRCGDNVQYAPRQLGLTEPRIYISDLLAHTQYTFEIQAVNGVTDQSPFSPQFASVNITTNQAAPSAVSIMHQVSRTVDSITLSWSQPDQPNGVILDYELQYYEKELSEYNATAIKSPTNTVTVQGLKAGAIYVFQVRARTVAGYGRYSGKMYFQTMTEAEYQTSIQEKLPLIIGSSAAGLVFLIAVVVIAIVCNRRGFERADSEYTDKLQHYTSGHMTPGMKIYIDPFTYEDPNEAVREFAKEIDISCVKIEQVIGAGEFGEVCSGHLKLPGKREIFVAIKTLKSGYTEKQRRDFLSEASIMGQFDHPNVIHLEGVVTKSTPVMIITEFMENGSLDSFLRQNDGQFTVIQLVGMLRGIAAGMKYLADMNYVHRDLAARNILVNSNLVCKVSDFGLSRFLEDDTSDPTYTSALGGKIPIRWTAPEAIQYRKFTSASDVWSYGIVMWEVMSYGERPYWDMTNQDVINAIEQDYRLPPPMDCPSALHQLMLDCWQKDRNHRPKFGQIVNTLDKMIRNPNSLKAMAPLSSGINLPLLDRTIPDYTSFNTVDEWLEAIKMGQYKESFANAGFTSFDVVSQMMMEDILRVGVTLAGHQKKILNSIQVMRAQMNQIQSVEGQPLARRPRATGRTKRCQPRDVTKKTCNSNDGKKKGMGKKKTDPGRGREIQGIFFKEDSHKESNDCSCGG
# DYRK3 (human) = DYRK3 (human) (UniProt O43781)
# CSK (human) = CSK (human) (UniProt P41240)
# CSK (human), sequence (P41240 whole entry, looked up): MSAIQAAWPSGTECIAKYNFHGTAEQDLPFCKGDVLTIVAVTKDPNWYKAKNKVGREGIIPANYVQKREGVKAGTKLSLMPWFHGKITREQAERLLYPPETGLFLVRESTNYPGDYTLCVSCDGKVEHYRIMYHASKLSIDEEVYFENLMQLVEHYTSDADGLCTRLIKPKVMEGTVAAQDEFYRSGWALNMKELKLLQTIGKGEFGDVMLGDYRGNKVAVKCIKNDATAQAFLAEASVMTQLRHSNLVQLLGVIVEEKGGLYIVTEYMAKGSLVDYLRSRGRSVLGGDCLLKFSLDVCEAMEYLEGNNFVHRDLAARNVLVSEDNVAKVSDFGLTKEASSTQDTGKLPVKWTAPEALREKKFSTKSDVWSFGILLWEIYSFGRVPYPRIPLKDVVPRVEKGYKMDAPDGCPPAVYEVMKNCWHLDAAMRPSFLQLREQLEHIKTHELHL
# MARK4 (human) = MARK4 (human) (UniProt Q96L34)
# MARK4 (human), sequence (Q96L34 whole entry, looked up): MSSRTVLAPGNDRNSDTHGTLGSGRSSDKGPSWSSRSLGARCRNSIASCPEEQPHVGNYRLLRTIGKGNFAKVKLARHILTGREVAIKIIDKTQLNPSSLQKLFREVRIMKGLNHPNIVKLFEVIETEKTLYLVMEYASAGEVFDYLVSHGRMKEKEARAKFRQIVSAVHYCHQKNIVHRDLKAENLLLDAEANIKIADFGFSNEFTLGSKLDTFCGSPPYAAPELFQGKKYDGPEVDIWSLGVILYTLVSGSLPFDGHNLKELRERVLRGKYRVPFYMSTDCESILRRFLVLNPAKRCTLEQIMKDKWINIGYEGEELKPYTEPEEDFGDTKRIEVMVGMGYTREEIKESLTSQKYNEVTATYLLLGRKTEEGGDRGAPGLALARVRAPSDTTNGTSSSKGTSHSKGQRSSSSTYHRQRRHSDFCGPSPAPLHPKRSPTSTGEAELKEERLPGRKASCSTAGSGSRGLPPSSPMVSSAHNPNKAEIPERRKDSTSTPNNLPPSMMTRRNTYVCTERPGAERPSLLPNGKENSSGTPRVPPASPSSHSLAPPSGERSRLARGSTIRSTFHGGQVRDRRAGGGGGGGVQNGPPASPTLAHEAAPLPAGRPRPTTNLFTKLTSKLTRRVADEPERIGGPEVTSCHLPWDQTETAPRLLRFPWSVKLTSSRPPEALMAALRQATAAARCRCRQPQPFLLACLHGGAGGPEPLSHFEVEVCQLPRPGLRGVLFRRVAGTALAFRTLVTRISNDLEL
# MAPK11 (human) = MAPK11 (human) (UniProt Q15759)
# EPHB1 (human) = EPHB1 (human) (UniProt P54762)
smiles,measurement,setting,value
CCN1CCN(Cc2ccc(NC(=O)c3ccc(C)c(Oc4ccnc5[nH]ccc45)c3)cc2C(F)(F)F)CC1,residual activity,BTK (human); compound 0.1 µM,103%
same,residual activity,BTK (human); compound 1.0 µM,85.3%
same,residual activity,BTK (human); compound 10.0 µM,34.2%
same,residual activity,SRC (human); compound 0.1 µM,66.5%
same,residual activity,SRC (human); compound 1.0 µM,9.72%
same,residual activity,SRC (human); compound 10.0 µM,2.65%
same,residual activity,FLT1 (human); compound 0.1 µM,69.5%
same,residual activity,FLT1 (human); compound 1.0 µM,15.2%
same,residual activity,FLT1 (human); compound 10.0 µM,2.74%
same,residual activity,JAK2 JH1 JH2 (human); compound 0.1 µM,93.4%
same,residual activity,JAK2 JH1 JH2 (human); compound 1.0 µM,92.4%
same,residual activity,JAK2 JH1 JH2 (human); compound 10.0 µM,41.6%
same,residual activity,MAP2K2 (human); compound 0.1 µM,131%
same,residual activity,MAP2K2 (human); compound 1.0 µM,116%
same,residual activity,MAP2K2 (human); compound 10.0 µM,96.8%
same,residual activity,MAPK12 (human); compound 1.0 µM,37.8%
same,residual activity,MAPK12 (human); compound 10.0 µM,10.8%
same,residual activity,RPS6KA5 KD1 KD2 (human); compound 0.1 µM,81.2%
same,residual activity,RPS6KA5 KD1 KD2 (human); compound 1.0 µM,45.8%
same,residual activity,RPS6KA5 KD1 KD2 (human); compound 10.0 µM,21.4%
same,residual activity,MAPK1 (human); compound 0.1 µM,101%
same,residual activity,MAPK1 (human); compound 1.0 µM,102%
same,residual activity,MAPK1 (human); compound 10.0 µM,106%
same,residual activity,EPHB3 (human); compound 0.1 µM,96.6%
same,residual activity,EPHB3 (human); compound 1.0 µM,29.5%
same,residual activity,EPHB3 (human); compound 10.0 µM,7.66%
same,residual activity,AURKA (human); compound 0.1 µM,120%
same,residual activity,AURKA (human); compound 1.0 µM,121%
same,residual activity,AURKA (human); compound 10.0 µM,102%
same,residual activity,LCK (mouse); compound 0.1 µM,12.7%
same,residual activity,LCK (mouse); compound 1.0 µM,0.851%
same,residual activity,LCK (mouse); compound 10.0 µM,5.77%
same,residual activity,HIPK1 (human); compound 0.1 µM,95%
same,residual activity,HIPK1 (human); compound 1.0 µM,70.8%
same,residual activity,HIPK1 (human); compound 10.0 µM,28.7%
same,residual activity,MAPK3 (human); compound 0.1 µM,99%
same,residual activity,MAPK3 (human); compound 1.0 µM,103%
same,residual activity,MAPK3 (human); compound 10.0 µM,99.7%
same,residual activity,TLK1 (human); compound 0.1 µM,107%
same,residual activity,TLK1 (human); compound 1.0 µM,92.2%
same,residual activity,TLK1 (human); compound 10.0 µM,92.1%
same,residual activity,GCK (human); compound 0.1 µM,24.1%
same,residual activity,GCK (human); compound 1.0 µM,12.3%
same,residual activity,GCK (human); compound 10.0 µM,9.08%
same,residual activity,ABL1 (human); compound 0.1 µM,51.4%
same,residual activity,ABL1 (human); compound 1.0 µM,3.77%
same,residual activity,ABL1 (human); compound 10.0 µM,0.874%
same,residual activity,MAPK9 (human); compound 0.1 µM,90.8%
same,residual activity,MAPK9 (human); compound 1.0 µM,21.8%
same,residual activity,MAPK9 (human); compound 10.0 µM,4.89%
same,residual activity,RPS6KA1 KD1 KD2 (human); compound 0.1 µM,107%
same,residual activity,RPS6KA1 KD1 KD2 (human); compound 1.0 µM,84.3%
same,residual activity,RPS6KA1 KD1 KD2 (human); compound 10.0 µM,37.9%
same,residual activity,MAPKAPK5 (human); compound 0.1 µM,105%
same,residual activity,MAPKAPK5 (human); compound 1.0 µM,97.4%
same,residual activity,MAPKAPK5 (human); compound 10.0 µM,92.2%
same,residual activity,PLK1 (human); compound 0.1 µM,103%
same,residual activity,PLK1 (human); compound 1.0 µM,91.6%
same,residual activity,PLK1 (human); compound 10.0 µM,95%
same,residual activity,INSRR (human); compound 0.1 µM,112%
same,residual activity,INSRR (human); compound 1.0 µM,91.3%
same,residual activity,INSRR (human); compound 10.0 µM,46.1%
same,residual activity,ZAP70 (human); compound 0.1 µM,92.4%
same,residual activity,ZAP70 (human); compound 1.0 µM,89.5%
same,residual activity,ZAP70 (human); compound 10.0 µM,59.9%
same,residual activity,EPHB2 (human); compound 0.1 µM,88.5%
same,residual activity,EPHB2 (human); compound 1.0 µM,23.4%
same,residual activity,EPHB2 (human); compound 10.0 µM,3.11%
same,residual activity,DYRK3 (human); compound 0.1 µM,96.5%
same,residual activity,DYRK3 (human); compound 1.0 µM,86.3%
same,residual activity,DYRK3 (human); compound 10.0 µM,82%
same,residual activity,CSK (human); compound 0.1 µM,81.8%
same,residual activity,CSK (human); compound 1.0 µM,15.4%
same,residual activity,CSK (human); compound 10.0 µM,7.86%
same,residual activity,MARK4 (human); compound 0.1 µM,116%
same,residual activity,MARK4 (human); compound 1.0 µM,104%
same,residual activity,MARK4 (human); compound 10.0 µM,88.7%
same,residual activity,MAPK11 (human); compound 0.1 µM,74.9%
same,residual activity,MAPK11 (human); compound 1.0 µM,16.6%
same,residual activity,MAPK11 (human); compound 10.0 µM,9.04%
same,residual activity,EPHB1 (human); compound 0.1 µM,111%
same,residual activity,EPHB1 (human); compound 1.0 µM,106%
same,residual activity,EPHB1 (human); compound 10.0 µM,66.9%
